# Measurements: article PMC11106675, “Synthesis of 1,4-azaphosphinine nucleosides and evaluation as inhibitors of human cytidine deaminase and APOBEC3A” (Beilstein Journal of Organic Chemistry, 2024)
# Where two headings read alike, the source gives them in different places.
# Legend:
# A3 enzymes = system: A3 enzymes; design: method as in PMID 30418757; conditions: as the free nucleoside; cited from earlier work
# [1] = target: T1, human cytidine deaminase (hCDA) (Homo sapiens, UniProt P32320); assay: UV kinetic assay of hCDA-catalysed 2'-deoxycytidine deamination; assay type: biochemical; conditions: for Ki: substrate dC, competitive inhibition assumed
# T1 construct: purchased Sigma-Aldrich SRP6372; host or cells: E. coli
# T1 sequence (P32320 whole entry): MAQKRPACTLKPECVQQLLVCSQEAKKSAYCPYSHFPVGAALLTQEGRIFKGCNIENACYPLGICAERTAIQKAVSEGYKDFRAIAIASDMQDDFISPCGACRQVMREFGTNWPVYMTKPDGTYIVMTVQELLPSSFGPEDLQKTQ
# Description: We monitored the hCDA-catalysed deamination of dC at 286 nm and analysed the kinetic profiles at various inhibitor concentrations using a global regression analysis of the kinetic data using Lambert’s W function. This method provides better estimates for the Michaelis–Menten constant (KM) and maximum velocity (Vmax) than nonlinear regression analysis of the initial rate (V0). […] Then, KM for the substrate and Ki for each inhibitor were calculated, assuming competitive nature of the inhibitors (Table 1).
# We assumed that protonation of Va might result in some inhibition of hCDA. […] This means that the pH value of the assay should be close to pH 1.5 to see any meaningful effect of partially protonated compound Va, but hCDA would be denatured at this pH value. By lowering the pH value to 6.0, dZ (IIc) started to lose potency against hCDA (Table 1), which might be a result of protonation of the pyrimidine ring in dZ (IIc). […] At this pH value, less than 1 in 1,000 molecules of Va might be protonated, which could mean that protonated acid Va is a potent hCDA inhibitor.
# Protein expression and purification
# Recombinant human cytidine deaminase (hCDA) expressed in E.Coli was purchased form Sigma-Aldrich, product No SRP6372. […]
# UV kinetic assay of hCDA-catalysed 2'-deoxycytidine
# UV spectroscopy was used to monitor hCDA-catalysed deamination of 2'-deoxycytidine at 286 nm in 100 mM NaCl, 50 mM phosphate buffer at 25 °C at various pH as mentioned in the text. Cary 300 Bio UV-vis spectrometer from Varian was used. Enzymatic reactions were performed in a q uartz cuvette (0.1 cm). Deamination of 2'-deoxycytidine leads to a decrease in absorption at 286 nm (Figure […]
# Figure S10. hCDA (27nM) catalysed deamination of 2'-deoxycitidine (⁓1.5 mM) in the absence (plus) and presence of 5 µM 2'-deoxyzebularine (IIc, asterisk) monitored by measuring absorbance at 286 nm over time in 100 mM NaCl, 1 mM TCEP, 50 mM phosphate buffer at 25 °C, at pH 7.4.
# The uninhibited deamination (pluses, Figure S10) and the inhibited reaction start at about the same speed. As the reaction progresses, the inhibited reaction becomes slower, as its observed KM is larger than in the uninhibited case. In order to be able to visualize the fitted curves, only every 5th data point is plotted. The data was then fitted using Gnuplot to the integrated Michaelis Menten equation [10]: […]
# (1 picture or pasted object on this page, not shown here) […]
# where mm(t) calculates the current substrate concentration with respect to the time, t. The four parameters which are fitted are KM and vmax, the Michaelis-Menten constants, c is the initial substrate concentration and d is a baseline correction parameter. A summary of the measured inhibition […]
# An increase in concentration of an inhibitor in enzymatic reaction leads to an increase in the observed KM value. The plot of observed KM values versus inhibitor concentration (Figures S11–S13) was then fitted with linear regression (y = ax + b) to derive the inhibition constant (Ki) using the following […]
# Uncertainty of Ki was calculated using error-propagation method.
# Figure S11. A plot of observed KM versus various concentration of dZ (IIc) in hCDA (27 nM) catalysed deamination of 2'-deoxycitidine in 100 mM NaCl, 1 mM TCEP, 50 mM phosphate buffer at 25 °C, at pH 7.4. […]
# [2] = Stability in aqueous solution (NMR samples); assay type: physicochemical; conditions: for stability in sodium phosphate buffer: pH 7.0, NMR samples, several days
# Excerpt: Catalytic hydrogenation is usually used for the removal of benzyl protecting groups. However, standard hydrogenation conditions using 10% Pd/C led to reduction of the C=C double bond in the nucleobase, providing nucleoside 24 (Scheme 3). To circumvent this problem, we used poisoned Pd catalyst (Lindlar’s catalyst, 5% Pd/CaCO3/3% Pb) and obtained the desired nucleoside 18. Individual anomers of nucleosides 18 and 24 were separated on a C18 column using a gradient of CH3CN in H2O. Removal of toluoyl groups was accomplished in aq NH3, providing pure α- and β-nucleoside of Va and Vc, respectively, carrying a negatively charged phosphinic acid group.
# [3] = Estimation of pKa from change of λmax as a function of pH; assay type: physicochemical; conditions: estimated from change in λmax as a function of pH
# Description: Figure S6. UV-vis spectra of compounds Va (A) and Vb (B) at 100 µM in 20 mM phosphate buffer, containing 10 %
# Estimation of pKa of nucleoside Va
# A change of λmax of nucleoside Va as a function of pH of the solution was plotted (Figure below) and
# Figure S7. Change in λmax of nucleoside Va as a function of pH.
# (1 picture or pasted object on this page, not shown here)
compound,measurement,setting,value
"O=c1ncccn1[C@H]1C[C@H](O)[C@@H](CO)O1 [dZ (IIc), 2'-deoxyzebularine, reference compound]",inhibition of A3 enzymes,A3 enzymes,does not inhibit
same,Km/Ki,[1]; pH 6.0,5.5
same,Ki,"[1]; pH 6.0, 25 °C, read-out: Ki",49 ± 13 µM
same,Km/Ki,[1]; pH 7.4,24
NP1(=O)C=CN(C2CC(O)C(CO)O2)C(=O)C1 (stereo not drawn) [β-anomer of Vb],Km/Ki,[1]; pH 7.4,30
same,Ki,"[1]; pH 7.4, 25 °C, read-out: Ki",8 ± 1.9 µM
O=C1CP(=O)(O)CCN1C1CC(O)C(CO)O1 (stereo not drawn) [Vc],stability in sodium phosphate buffer,[2],no decomposition
"Nc1ccn([C@H]2C[C@H](O)[C@@H](CO)O2)c(=O)n1 [dC, 2'-deoxycytidine, reference compound]",Km,"[1]; pH 7.4, fitted in the experiment with inhibitor dZ (IIc), read-out: Km of dC",260 ± 40 µM
O=C1CP(=O)(O)C=CN1C1CC(O)C(CO)O1 (stereo not drawn) [β-anomer of Va],Ki,"[1]; pH 4.7, 25 °C, read-out: Ki",560 ± 100 µM
same,Ki,"[1]; pH 6.0, 25 °C",no inhibition
same,Ki,"[1]; pH 7.4, 25 °C",no inhibition
O=C1CP(=O)(O)C=CN1C1CC(O)C(CO)O1 (stereo not drawn) [Va],stability in sodium phosphate buffer,[2],no decomposition
same,stability in water,[2]; pH 7.4,excellent stability
same,Ki,"[1]; pH 7.4, 25 °C",lack of inhibition
same,pKa,[3],≤ 1.5
